A value given as a limit tells only on which side of the number the result lay.

For this assay, the system named is HCV 1b_Huh-Luc/Neo-ET cell line persistently expressing a bicistronic genotype 1b replicon in Huh 7 cells. Put plainly: HCV replicon assay (luciferase readout). The format is cell-based. The note with it: Hepatitis C virus, Huh-7, 72 h, read-out: Inhibition of HCV genotype 1b. How it is done:
Biological activity of the compounds of the invention was determined using an HCV replicon assay. The HCV 1b_Huh-Luc/Neo-ET cell line persistently expressing a bicistronic genotype 1b replicon in Huh 7 cells was obtained from ReBLikon GMBH. This cell line was used to test compound inhibition using luciferase enzyme activity readout as a measurement of compound inhibition of replicon levels.
On Day 1 (the day after plating), each compound is added in triplicate to the cells. Plates incubated for 72 h prior to running the luciferase assay. Enzyme activity was measured using a Bright-Glo Kit (cat. number E2620) manufactured by Promega Corporation. The following equation was used to generate a percent control value for each compound. % Control=(Average Compound Value/Average Control)*100
The EC50 value was determined using GraphPad Prism and the following equation: Y=Bottom+(Top−Bottom)/(1+10^((Log IC50−X)*HillSlope))
EC50 values of compounds are determined several times in the replicon assay.
Example compounds of the disclosed invention are illustrated in Tables 1-14 attached as appendices. The tables show inhibitory activity of many of the example compounds with respect to HCV 1b. […] The tables further provide mass spectrometry results for the synthesized example compounds.

In the case of `COC(=O)N[C@@H](C(=O)N1CCC[C@H]1c1ncc(-c2ccc(C#Cc3ccc(-c4cnc([C@@H]5CCCN5C(=O)c5nccn5C)[nH]4)cc3)cc2)[nH]1)c1ccccc1` [Compound 176], the EC50 was less than 1 nM.
The figure for `COC(=O)N[C@@H](C(=O)N1CCC[C@H]1CNC(=O)c1ccc(C#Cc2ccc(-c3cnc([C@@H]4CCCN4C(=O)[C@H](NC(=O)OC)c4ccccc4)[nH]3)cc2)cc1)c1ccccc1` [Compound 211] is less than 1 nM; for `C[C@@H](NC(=O)C1CC1)C(=O)N1CCC[C@H]1c1ncc(-c2ccc(C#Cc3ccc(-c4cnc([C@@H]5CCCN5C(=O)[C@@H](C)NC(=O)C5CC5)[nH]4)cc3)cc2)[nH]1` [Compound 154] it is 1 to 9.9 nM; for `COC(=O)N[C@@H](C(=O)N1CCC[C@H]1c1ncc(-c2ccc(C#Cc3ccc(-c4cnc([C@@H]5CCCN5C(=O)C5CCN(C)CC5)[nH]4)cc3)cc2)[nH]1)c1ccccc1` [Compound 182] it is less than 1 nM.
The figure for `COC(=O)NC(C(=O)N1CCC[C@H]1c1ncc(-c2ccc(C#Cc3ccc(-c4cnc([C@@H]5CCCN5C(=O)[C@@H](NC(=O)OC)C(C)C)[nH]4)c(F)c3)cc2)[nH]1)C(C)C` (some centres unmarked) [Compound 1011] is less than 1 nM; for `COC(=O)N[C@@H](C(=O)N1CCC[C@H]1c1ncc(-c2ccc(C#Cc3ccc(-c4cnc([C@@H]5CCCN5C(=O)[C@H]5CCCN5C)[nH]4)cc3)cc2)[nH]1)c1ccccc1` [Compound 187] it is less than 1 nM; for `O=C(N[C@@H](C(=O)N1CCC[C@H]1c1ncc(-c2ccc(C#Cc3ccc(-c4cnc([C@@H]5CCCN5C(=O)[C@@H](c5ccccc5)N5CCCC5)[nH]4)cc3)cc2)[nH]1)c1ccccc1)C1CC1` [Compound 217] it is less than 1 nM.
The figure for `CNC(=O)N[C@@H](C(=O)N1CCC[C@H]1c1ncc(C#Cc2ccc(C#Cc3cnc([C@@H]4CCCN4C(=O)[C@H](NC(=O)NC)c4ccccc4)[nH]3)cc2)[nH]1)c1ccccc1` [Compound 307] is less than 1 nM.
On to `COC(=O)N[C@@H](CC(C)C)C(=O)N1CCC[C@H]1c1ncc(-c2ccc(C#Cc3ccc(-c4cnc([C@@H]5CCCN5C(=O)[C@H](CC(C)C)NC(=O)OC)[nH]4)cc3)cc2)[nH]1` [Compound 961], for which the EC50 is less than 1 nM.
The figure for `CS(=O)(=O)N[C@@H](C(=O)N1CCC[C@H]1c1ncc(-c2ccc(C#Cc3ccc(-c4cnc([C@@H]5CCCN5C(=O)[C@H](NS(C)(=O)=O)c5ccccc5)[nH]4)cc3)cc2)[nH]1)c1ccccc1` [Compound 226] is less than 1 nM.
Turning to `COC(=O)N[C@H](C(=O)N1CCC[C@H]1c1nc2ccc(C#Cc3ccc(-c4cnc([C@@H]5CCCN5C(=O)[C@H](NC(=O)OC)C(C)C)[nH]4)cc3)cc2[nH]1)C(C)C` [Compound 1053], the EC50 was less than 1 nM.
`COC(=O)N[C@H](C(=O)N1CCC[C@H]1c1nc2ccc3cc(C#Cc4ccc(-c5cnc([C@@H]6CCCN6C(=O)[C@H](NC(=O)OC)c6ccccc6)[nH]5)cc4)ccc3c2[nH]1)C(C)C` [Compound 1093]: the EC50 was less than 1 nM.
On to `C[C@H]1OC(=O)N[C@@H]1C(=O)N1CCC[C@H]1c1ncc(-c2ccc(C#Cc3ccc(-c4cnc([C@@H]5CCCN5C(=O)[C@H]5NC(=O)O[C@@H]5C)[nH]4)cc3)cc2)[nH]1` [Compound 979], for which the EC50 lay in the range of 10 to 999 nM.
With `O=C(N[C@@H](C(=O)N1CCC[C@H]1C(=O)Nc1ccc(C#Cc2cnc([C@@H]3CCCN3C(=O)[C@H](NC(=O)C3CC3)c3ccccc3)[nH]2)cc1)c1ccccc1)C1CC1` [Compound 117] the figure was less than 1 nM; with `COC(=O)N[C@@H](C(=O)N1CCC[C@H]1c1ncc(-c2ccc(C#Cc3ccc(-c4cnc([C@@H]5CCCN5C(=O)NCc5ccccc5)[nH]4)cc3)cc2)[nH]1)c1ccccc1` [Compound 197], less than 1 nM.
The figure for `COC(=O)N[C@H](C(=O)N[C@@H](C)c1ncc(-c2ccc(C#Cc3ccc(-c4cnc([C@@H]5CCCN5C(=O)[C@@H](c5ccccc5)N(C)C)[nH]4)cc3)cc2)[nH]1)C(C)C` [Compound 965] is less than 1 nM; for `COC(=O)N[C@@H](C(=O)N1CCC[C@H]1c1ncc(-c2ccc(C#Cc3ccc(-c4cnc([C@@H]5CCCN5C(=O)[C@@H](c5ccccc5)N5CCCCC5)[nH]4)cc3)cc2)[nH]1)c1ccccc1` [Compound 188] it is less than 1 nM.
With `CC(C)[C@@H](NC(=O)C1CC1)C(=O)N1CCC[C@H]1C(=O)NCCc1ccc(C#Cc2cnc([C@@H]3CCCN3C(=O)[C@H](NC(=O)C3CC3)C(C)C)[nH]2)cc1` [Compound 127] the figure was 10 to 999 nM.
Turning to `COC(=O)N[C@@H](C(=O)N1CCC[C@H]1c1ncc(-c2ccc(C#Cc3ccc(-c4cnc([C@@H]5CCCN5C(=O)[C@H](NC(=O)N5CCC[C@@H](O)C5)c5ccccc5)[nH]4)cc3)cc2)[nH]1)c1ccccc1` [Compound 264], the EC50 is less than 1 nM.
The figure for `COC(=O)N[C@@H](C(=O)N1CCC[C@H]1c1ncc(-c2ccc(C#Cc3ccc(-c4cnc([C@@H]5CCCN5C(=O)[C@H](NC(=O)OC)c5ccccc5)[nH]4)c(F)c3)cc2)[nH]1)c1ccccc1` [Compound 1013] is less than 1 nM; for `CN(C)[C@@H](C(=O)N1CCC[C@H]1c1ncc(-c2ccc(C#Cc3cnc([C@@H]4CCCN4C(=O)[C@H](NC(=O)C4CC4)c4ccccc4)[nH]3)cc2)[nH]1)c1ccccc1` [Compound 131] it is less than 1 nM.
Turning to `COC(=O)N[C@H](C(=O)N1CCC[C@H]1c1nc(-c2cnc3cc(C#Cc4ccc(-c5cnc([C@@H]6CCCN6C(=O)[C@@H](NC(=O)OC)c6ccccc6)[nH]5)cc4)ccc3c2)c[nH]1)c1ccccc1` [Compound 1089], the EC50 lay within 1 to 9.9 nM.
With `COC(=O)N[C@H](C(=O)N[C@@H](C)c1ncc(-c2ccc(C#Cc3ccc4nc([C@H](C)NC(=O)[C@@H](NC(=O)OC)C(C)C)[nH]c4c3)cc2)[nH]1)C(C)C` [Compound 868] the figure was less than 1 nM.
With `COC(=O)N[C@@H](C(=O)N1CCC[C@H]1c1nc2ccc(C#Cc3ccc4nc([C@@H]5CCCN5C(=O)[C@H](NC(=O)OC)c5ccccc5)[nH]c4c3)cc2[nH]1)c1ccccc1` [Compound 851] the figure was less than 1 nM; with `COC(=O)N[C@@H](C(=O)N1CCC[C@H]1c1ncc(-c2ccc(C#Cc3ccc4nc([C@@H]5CCCN5C(=O)[C@H](NC(=O)OC)c5ccccc5)[nH]c4c3)cc2)[nH]1)c1ccccc1` [Compound 800], less than 1 nM; with `COC(=O)N[C@H](C(=O)N1CCC[C@H]1c1nc2ccc3cc(C#Cc4ccc(-c5cnc([C@@H]6CCCN6C(=O)[C@@H](NC(=O)OC)C6CCOCC6)[nH]5)cc4)ccc3c2[nH]1)C(C)C` [Compound 1092], less than 1 nM.
In the case of `COC(=O)N[C@H](C(=O)N[C@@H](C)c1ncc(-c2ccc(C#Cc3ccc4nc([C@@H]5CCCN5C(=O)[C@@H](NC(=O)OC)C(C)C)[nH]c4c3)cc2)[nH]1)C(C)C` [Compound 869], the EC50 was less than 1 nM.
The figure for `CC[C@H](NC(=O)OC)C(=O)N1CCC[C@H]1c1ncc(-c2ccc(C#Cc3ccc4nc([C@@H]5CCCN5C(=O)[C@H](CC)NC(=O)OC)[nH]c4c3)cc2)[nH]1` [Compound 1036] is less than 1 nM; for `CC(C)(C)OC(=O)N[C@@H](C(=O)N1CCC[C@H]1C(=O)NCc1ccc(C#Cc2cnc([C@@H]3CCCN3C(=O)[C@H](NC(=O)OC(C)(C)C)c3ccccc3)[nH]2)cc1)c1ccccc1` [Compound 119] it is less than 1 nM; for `COC(=O)N[C@@H](C(=O)N1CCC[C@H]1c1ncc(C#Cc2ccc(C#Cc3cnc([C@@H]4CCCN4C(=O)[C@H](NC(=O)OC)c4ccccc4)[nH]3)cc2)[nH]1)c1ccccc1` [Compound 304] it is less than 1 nM.
The figure for `CN(C)[C@@H](C(=O)N1CCC[C@H]1c1ncc(-c2ccc(C#Cc3ccc(-c4cnc([C@@H]5CCCN5C(=O)[C@H](NS(C)(=O)=O)c5ccccc5)[nH]4)cc3)cc2)[nH]1)c1ccccc1` [Compound 228] is less than 1 nM; for `COC(=O)N[C@H](C(=O)N1CCC[C@H]1c1ncc(-c2ccc(C#Cc3ccc(-c4cnc([C@@H]5CCCN5C(=O)[C@H](NC(=O)N(CCO)CCO)c5ccccc5)[nH]4)cc3)cc2)[nH]1)C(C)C` [Compound 973] it is less than 1 nM; for `CC(C)(C)OC(=O)N[C@@H](C(=O)N1CCC[C@H]1CNC(=O)c1ccc(C#Cc2ccc(-c3cnc([C@@H]4CCCN4C(=O)[C@H](NC(=O)OC(C)(C)C)c4ccccc4)[nH]3)cc2)cc1)c1ccccc1` [Compound 192] it is 1 to 9.9 nM.
The figure for `CS(=O)(=O)N[C@@H](C(=O)N1CCC[C@H]1c1ncc(-c2ccc(C#Cc3ccc(-c4cnc([C@@H]5CCCN5C(=O)[C@@H](c5ccccc5)N5CCCCC5)[nH]4)cc3)cc2)[nH]1)c1ccccc1` [Compound 231] is less than 1 nM.
For the compound `CC(C)[C@@H](C(=O)N1CCC[C@H]1c1ncc(-c2ccc(C#Cc3ccc4nc([C@@H]5CCCN5C(=O)[C@H](C(C)C)N5CCOC5=O)[nH]c4c3)cc2)[nH]1)N1CCOC1=O` [Compound 1039], the EC50 lay in the range of 1 to 9.9 nM.
The figure for `COC(=O)NCC(=O)N1CCC[C@H]1c1ncc(-c2ccc(C#Cc3ccc4nc([C@@H]5CCCN5C(=O)CNC(=O)OC)[nH]c4c3)cc2)[nH]1` [Compound 1049] is 10 to 999 nM; for `COC(=O)N[C@@H](C(=O)N1CCC[C@H]1c1ncc(C#Cc2ccc(-c3ccc(-c4cnc([C@@H]5CCCN5C(=O)[C@@H](c5ccccc5)N5CCCCC5)[nH]4)cc3)cc2)[nH]1)c1ccccc1` [Compound 752] it is less than 1 nM.
With `COC(=O)NC(C(=O)N1CCC[C@H]1c1ncc(-c2ccc(C#Cc3ccc(-c4cnc([C@@H]5CCCN5C(=O)[C@@H](NC(=O)OC)C(C)C)[nH]4)cc3)cc2)[nH]1)[C@@H](C)OC` (some centres unmarked) [Compound 972] the figure was less than 1 nM.

The values are drawn from patent US8865756B2, “Inhibitors of HCV NS5A” (Presidio Pharmaceuticals, Inc., priority 2008, dated 2014).
